14 compounds from patent publication US20080039528A1, “Zinc finger ejectors and methods of use thereof” (KANSAS STATE UNIVERSITY RESEARCH FOUNDATION, priority 2004, published 2008) can be followed below.

For one series, the system named is P. falciparum D6. As to the kind of experiment: Inhibition of the growth of P. falciparum D6 clone ([3H]-hypoxanthine uptake). It counts as cell-based, Plasmodium falciparum. The following applies: for inhibitory activities (in words): P. falciparum D6 and W2 and L. donovani parasites, summary statement; for IC50: read-out: D6, IC50; for IC90: read-out: D6, IC90. The procedure: (§1) Inhibition of the growth of P. falciparum. A reported method for the inhibition of the growth of P. falciparum was followed. The incubation period of the parasites was 66 h and the starting parasitemia was 0.2% with a 1% hematocrit. The medium used was RPMI-1640 culture medium with no folate or p-aminobenzoic acid and 10% normal heat-inactivated human plasma, and P. falciparum D6 and W2 clones were used. D6 is a clone from the Sierra I/UNC isolates and is susceptible to chloroquine and pyrimethamine but has reduced susceptibilities to mefloquine and halofantrine. W2 is a clone of the Indochina I isolate and is resistant to chloroquine and pyrimethamine but susceptible to mefloquine. […] The diluted compounds were transferred ([…]) to test plates, 200 µL of parasitized erythrocytes (0.2% parasitemia and 1% hematocrit) was added, and was incubated at 37° C. in a controlled environment of 5% CO2, 5% O2, and 90% N2. After 42 h, 25 µL of [^3H]-hypoxanthine was added and the plates were incubated for an additional 24 h. The plates were then frozen at −70° C. to lyse the red cells and later thawed and harvested onto glass fiber filter mats by using a 96-well cell harvester. The filter mats were counted in a scintillation counter and the data were downloaded with the custom, automated analysis software developed by WRAIR. For each compound, the concentration-response profile was determined and 50% inhibitory concentrations (IC50) were determined by using a nonlinear, logistic dose-response analysis program.

A further series has as its system P. falciparum W2. Kind of series: Inhibition of the growth of P. falciparum W2 clone ([3H]-hypoxanthine uptake). The format is cell-based, Plasmodium falciparum. As to conditions: for IC50: read-out: W2, IC50; for IC90: read-out: W2, IC90. The protocol:
as §1

Series [1] has as its system L. donovani axenic amastigote-like parasites. Kind of series: Inhibition of the growth of L. donovani axenic amastigotes (3-day CellTiter 96 assay). It counts as cell-based, Leishmania donovani. As to conditions: 3-day assay. The protocol:
Inhibition of the growth of L. donovani parasites. A reported method for the inhibition of the growth of L. donovani parasites was followed. L. donovani axenic amastigotes were maintained in modified RPMI medium as previously described. Inhibition of growth by the compounds was measured in a 3-day assay using the tetrazolium dye-based CellTiter 96 Aqueous Non-Radioactive Cell Proliferation Assay Kit (Promega, Madison, Wis., USA) as previously described. The known anti-leishmaniasis drug, pentamidine, was used as a control.

A further series can be described thus: Solubility (qualitative). It counts as physicochemical.
The mark [2] stands for this setting: Plasmodium falciparum, D6, 66 h, P. falciparum D6 intraerythrocytic forms, 66 h incubation.
[3] abbreviates: Plasmodium falciparum, W2, 66 h, P. falciparum W2 intraerythrocytic forms, 66 h incubation.
Setting [4] is: P. falciparum D6 intraerythrocytic forms, 66 h incubation.
[5] abbreviates: P. falciparum W2 intraerythrocytic forms, 66 h incubation.
Where [6] appears, read: Plasmodium falciparum, P. falciparum W2 intraerythrocytic forms, 66 h incubation.
The mark [7] stands for this setting: Plasmodium falciparum, D6, 66 h.
The mark [8] stands for this setting: Plasmodium falciparum, W2, 66 h.

Like-named read-outs stand apart in the source and are kept apart here.

As usually defined, the IC50 is the concentration at which inhibition is half-maximal. In general, IC90 refers to the concentration at which the effect reaches the 90% level.

Regarding `O=C(O)c1ccc(OCCCCCOc2ccc(C(=O)O)cc2)cc1` [Biscarboxylic acid 6, 1,5-Bis-[4-(hydroxycarbonyl)phenoxy]pentane], the “inhibitory activities (in words)” value in the series with P. falciparum D6 was “do not show inhibitory activities”. Besides, the half-maximal inhibitory concentration (IC50) in the series on P. falciparum D6 (setting [2]) and in the series on P. falciparum W2 (setting [3]) was greater than 60000 nM in each case.

Consider `O=C(O)c1ccc(OC/C=C/COc2ccc(C(=O)O)cc2)cc1` [Biscarboxylic acid 8, trans-1,4-Bis-[4-(hydroxycarbonyl)phenoxy]-2-butene], for which the “inhibitory activities (in words)” value with P. falciparum D6 is “do not show inhibitory activities”. In addition, the half-inhibitory concentration (IC50) in the series on P. falciparum D6 (setting [2]) and in the series on P. falciparum W2 (setting [3]) was greater than 60000 nM throughout.

Regarding `O=C(O)c1ccc(OCCOCCOc2ccc(C(=O)O)cc2)cc1` [Biscarboxylic acid 10, 2,2′-Bis-[(4-hydroxycarbonyl)phenoxy]ethyl ether], the concentration for half-maximal inhibition (IC50) in series [1] was greater than 100000 nM; with P. falciparum D6 (setting [4]), greater than 38000 nM; in the series with P. falciparum W2 (setting [5]), greater than 38000 nM. Also, the “inhibitory activities (in words)” value with P. falciparum D6 was “do not show inhibitory activities”.

For the compound `COC(=O)c1ccc(OCCCCCOc2ccc(C(=O)OC)cc2)cc1` [Bisester 5, 1,5-Bis-(4-methoxycarbonylphenoxy)pentane], the “inhibitory activities (in words)” value with P. falciparum D6 is “do not show inhibitory activities”. The half-inhibitory concentration (IC50) in the series on P. falciparum D6 (setting [2]) and with P. falciparum W2 (setting [3]) was greater than 60000 nM throughout.

Consider `COC(=O)c1ccc(OC/C=C/COc2ccc(C(=O)OC)cc2)cc1` [Bisester 7, trans-1,4-Bis-(4-methoxycarbonylphenoxy)-2-butene], for which the “inhibitory activities (in words)” value with P. falciparum D6 was “do not show inhibitory activities”. The IC50 in the series with P. falciparum D6 (setting [2]) and in the series on P. falciparum W2 (setting [3]) was greater than 60000 nM throughout.

In the case of `COC(=O)c1ccc(OCCOCCOc2ccc(C(=O)OC)cc2)cc1` [Bisester 9, 2,2′-Bis-(4-methoxycarbonylphenoxy)ethyl ether], the figures for the IC50 (in series [1]; with P. falciparum D6 (setting [4]); in the series on P. falciparum W2 (setting [5])) were greater than 100000 nM, greater than 60000 nM and greater than 60000 nM, respectively. Besides, in the series with P. falciparum D6, the “inhibitory activities (in words)” value is “do not show inhibitory activities”.

On to `O=C(NO)c1ccc(OCCCCCOc2ccc(C(=O)NO)cc2)cc1` [Bishydroxamic acid 1, 1,5-Bis-[4-(hydroxyaminocarbonyl)phenoxy]pentane], for which, in the series with P. falciparum D6 (setting [4]), the IC50 is 2200 nM and the concentration for an effect of 90% (IC90) was 6200 nM. In addition, the 50% inhibitory concentration (IC50) in the series with P. falciparum W2 (setting [5]) amounted to 3200 nM.

As for `O=C(NO)c1ccc(OC/C=C/COc2ccc(C(=O)NO)cc2)cc1` [Bishydroxamic acid 2, trans-1,4-Bis[4-(hydroxyaminocarbonyl)phenoxy]-2-butene], the IC50 with P. falciparum D6 (setting [2]) amounted to 690 nM; in the series with P. falciparum W2 (setting [3]) it was 1050 nM. The IC90 with P. falciparum D6 (setting [2]) is 1800 nM; in the series on P. falciparum W2 (setting [6]), 2570 nM.

Take `O=C(NO)c1ccc(OCCOCCOc2ccc(C(=O)NO)cc2)cc1` [Bishydroxamic acid 3, 2,2′-Bis-[(4-hydroxyaminocarbonyl)phenoxy]ethyl ether]: the figures for the IC50 (in series [1]; with P. falciparum D6 (setting [4]); with P. falciparum W2 (setting [5])) were 18500 ± 6000 nM, 240 nM and 350 nM, respectively. The “solubility in DMSO” value in “Solubility (qualitative)” (DMSO) is “soluble in DMSO”. For the same compound, the solubility in water entry in the series “Solubility (qualitative)” is “only slightly soluble in water”. For the same compound, the IC90 in the series with P. falciparum D6 (setting [4]) came to 470 nM; in the series on P. falciparum W2 (setting [5]) it was 600 nM.

With `O=C([N-]O)c1ccc(OCCCCCOc2ccc(C(=O)[N-]O)cc2)cc1.[Na+].[Na+]` [Bishydroxamic acid sodium salt 11, 1,5-Bis-[4-(hydroxy-sodio-aminocarbonyl)phenoxy]pentane], the solubility in water result in the series “Solubility (qualitative)” is reported as “soluble in water”. Besides, in the series on P. falciparum D6 (setting [4]), the IC50 stood at 1000 nM and the IC90 came out at 2000 nM. The concentration for half-maximal inhibition (IC50) in the series on P. falciparum W2 (setting [5]) is 1090 nM.

On to `O=C([N-]O)c1ccc(OCCOCCOc2ccc(C(=O)[N-]O)cc2)cc1.[Na+].[Na+]` [Bishydroxamic acid sodium salt 12, 2,2′-Bis-[(4-hydroxy-sodio-aminocarbonyl)phenoxy]ethyl ether], for which the IC50 in series [1] was 37400 ± 14000 nM; with P. falciparum D6 (setting [4]), 260 nM; with P. falciparum W2 (setting [5]), 360 nM. In “Solubility (qualitative)”, the solubility in water entry was “soluble in water”. Further, the 90% effect concentration (IC90) in the series on P. falciparum D6 (setting [4]) came out at 520 nM; in the series on P. falciparum W2 (setting [5]), 600 nM.

Regarding `CCN(CC)CCCC(C)Nc1ccnc2cc(Cl)ccc12` (centres unmarked) [Chloroquine, reference compound], in the series on P. falciparum D6 (setting [7]), the half-maximal inhibitory concentration (IC50) came to 13 nM and the IC90 came out at 14 nM. Also, in the series with P. falciparum W2 (setting [8]), the half-maximal inhibitory concentration (IC50) was 450 nM and the concentration for an effect of 90% (IC90) came out at 650 nM.

As for `OC(c1cc(C(F)(F)F)nc2c(C(F)(F)F)cccc12)C1CCCCN1` (centres unmarked) [Mefloquine, reference compound], the IC50 in the series with P. falciparum D6 (setting [2]) is 13 nM; in the series on P. falciparum W2 (Plasmodium falciparum, W2, P. falciparum W2, value in nM), 8 nM. Moreover, the results for the IC90 in the series on P. falciparum D6 (setting [2]) and in the series on P. falciparum W2 (setting [6]) were 240 nM and 15 nM, respectively.

Compound `N=C(N)c1ccc(OCCCCCOc2ccc(C(=N)N)cc2)cc1` [Pentamidine, reference compound] gave an IC50 in series [1] (Leishmania donovani, 72 h) of 1190 ± 120 nM.
